From patent US20250115569A1, “SULFONAMIDE COMPOUNDS FOR THE TREATMENT OF NEUROLOGICAL CONDITIONS” (LARIO THERAPEUTICS LIMITED, priority 2021, published 2025)

Target: Cav2.3 (Homo sapiens, UniProt Q15878)
Assay: Human Cav2.3 channel calcium-influx assay
Assay type: cell-based
Conditions: Fluo8 fluorescence, HEK-293 T-Rex/Kir2.1/Cav2.3e cells, without pluronic acid, read-out: Cav2.3 (pIC50) (converted)
Method in brief: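 Signal = peak fluorescence (5–130 s) minus baseline (1–2 s), normalized to neutral (0) and inhibitor (−100) controls as % effect. Depolarization used final 20 mM KCl, 130 mM NaCl, 2 mM CaCl2, after 3 min RT compound exposure (30 μM top, half-log, 8 points, 0.3% DMSO) in doxycycline-induced HEK-293 T-Rex/Kir2.1/Cav2.3e-β4-α2δ1 cells with Fluo8 NW.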

Chain of Cav2.3 (Q15878 whole entry, looked up): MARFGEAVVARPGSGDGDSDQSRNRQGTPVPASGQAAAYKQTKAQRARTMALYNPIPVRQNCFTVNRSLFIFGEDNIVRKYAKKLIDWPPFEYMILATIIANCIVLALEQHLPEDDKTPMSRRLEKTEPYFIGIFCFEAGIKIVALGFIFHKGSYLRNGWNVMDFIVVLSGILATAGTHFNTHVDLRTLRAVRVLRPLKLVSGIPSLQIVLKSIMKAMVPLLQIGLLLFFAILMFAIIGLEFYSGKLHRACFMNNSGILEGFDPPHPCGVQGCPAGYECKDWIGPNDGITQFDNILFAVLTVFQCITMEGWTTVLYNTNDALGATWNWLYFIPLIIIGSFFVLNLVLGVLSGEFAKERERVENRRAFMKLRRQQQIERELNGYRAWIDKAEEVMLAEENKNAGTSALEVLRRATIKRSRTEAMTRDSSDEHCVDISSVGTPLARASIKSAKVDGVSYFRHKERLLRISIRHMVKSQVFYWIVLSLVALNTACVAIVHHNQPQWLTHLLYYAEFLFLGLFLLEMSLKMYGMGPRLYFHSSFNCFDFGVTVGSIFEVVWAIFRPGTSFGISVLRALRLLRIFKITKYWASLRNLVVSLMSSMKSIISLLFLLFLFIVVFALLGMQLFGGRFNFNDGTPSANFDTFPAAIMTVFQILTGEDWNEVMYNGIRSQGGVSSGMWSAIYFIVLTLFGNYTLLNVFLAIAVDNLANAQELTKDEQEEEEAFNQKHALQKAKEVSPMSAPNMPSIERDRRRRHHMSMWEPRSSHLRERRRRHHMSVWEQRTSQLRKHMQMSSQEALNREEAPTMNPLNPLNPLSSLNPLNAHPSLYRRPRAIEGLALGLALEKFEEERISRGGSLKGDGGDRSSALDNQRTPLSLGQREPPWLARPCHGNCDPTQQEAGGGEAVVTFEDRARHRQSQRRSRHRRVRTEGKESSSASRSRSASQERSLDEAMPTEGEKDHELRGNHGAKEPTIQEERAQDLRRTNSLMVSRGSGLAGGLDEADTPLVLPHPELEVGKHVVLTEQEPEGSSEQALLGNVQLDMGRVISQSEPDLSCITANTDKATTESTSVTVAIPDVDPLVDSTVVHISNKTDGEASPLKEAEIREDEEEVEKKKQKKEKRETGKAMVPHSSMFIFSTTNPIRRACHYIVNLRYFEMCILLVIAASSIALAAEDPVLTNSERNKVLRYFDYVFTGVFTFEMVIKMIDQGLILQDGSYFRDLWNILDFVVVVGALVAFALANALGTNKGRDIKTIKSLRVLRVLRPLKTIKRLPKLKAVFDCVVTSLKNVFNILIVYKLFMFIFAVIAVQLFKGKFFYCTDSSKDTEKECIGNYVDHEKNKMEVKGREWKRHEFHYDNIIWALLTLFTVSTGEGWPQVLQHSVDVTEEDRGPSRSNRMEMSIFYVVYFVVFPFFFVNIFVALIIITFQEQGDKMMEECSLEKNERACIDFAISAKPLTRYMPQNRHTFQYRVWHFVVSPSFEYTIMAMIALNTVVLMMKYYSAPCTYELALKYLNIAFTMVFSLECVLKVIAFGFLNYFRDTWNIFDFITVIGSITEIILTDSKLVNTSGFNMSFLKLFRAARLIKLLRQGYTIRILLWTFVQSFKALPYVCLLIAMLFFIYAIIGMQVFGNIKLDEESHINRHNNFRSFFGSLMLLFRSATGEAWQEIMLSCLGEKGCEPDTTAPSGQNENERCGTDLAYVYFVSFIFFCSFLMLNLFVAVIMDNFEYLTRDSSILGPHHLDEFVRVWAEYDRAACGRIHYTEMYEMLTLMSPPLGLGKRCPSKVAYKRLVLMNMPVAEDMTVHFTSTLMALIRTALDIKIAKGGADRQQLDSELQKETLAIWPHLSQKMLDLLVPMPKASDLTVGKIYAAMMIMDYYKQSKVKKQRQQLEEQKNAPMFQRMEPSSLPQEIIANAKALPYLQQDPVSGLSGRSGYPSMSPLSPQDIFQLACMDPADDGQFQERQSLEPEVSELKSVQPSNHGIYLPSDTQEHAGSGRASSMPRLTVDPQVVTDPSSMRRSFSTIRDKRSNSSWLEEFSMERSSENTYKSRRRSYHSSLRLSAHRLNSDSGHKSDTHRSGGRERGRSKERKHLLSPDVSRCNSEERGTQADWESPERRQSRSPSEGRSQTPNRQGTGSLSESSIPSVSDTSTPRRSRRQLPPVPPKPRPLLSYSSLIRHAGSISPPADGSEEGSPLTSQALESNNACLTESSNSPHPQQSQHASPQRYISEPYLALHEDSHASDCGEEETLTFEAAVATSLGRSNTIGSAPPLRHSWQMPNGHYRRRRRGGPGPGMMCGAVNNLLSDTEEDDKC

| Structure (SMILES) | IC50 |
| --- | --- |
| CCN([C@H](c1ccc(F)cc1)C(F)(F)F)S(=O)(=O)c1nn(CC)c2ncccc12 [Example 190, (R)—N,1-diethyl-N-(2,2,2-trifluoro-1-(4-fluorophenyl)ethyl)-1H-pyrazolo[3,4-b]pyridine-3-sulfonamide] | 1000 nM |
| CCN(C(c1ccc(F)cc1)C(F)(F)F)S(=O)(=O)c1ccc(=O)n(C)c1 (stereo not drawn) [Example 100, N-ethyl-1-methyl-6-oxo-N-(2,2,2-trifluoro-1-(4-fluorophenyl)ethyl)-1,6-dihydropyridine-3-sulfonamide] | 380 nM |
| CCN([C@H](c1ccc(F)cc1)C(F)(F)F)S(=O)(=O)c1cnc2nc[nH]c2c1 [Example 156, (R)—N-ethyl-N-(2,2,2-trifluoro-1-(4-fluorophenyl)ethyl)-1H-imidazo[4,5-b]pyridine-6-sulfonamide] | 204 nM |
| CCN([C@H](c1ccc(F)cc1)C(F)(F)F)S(=O)(=O)c1ccc2nccn2c1 [Example 146, (R)—N-ethyl-N-(2,2,2-trifluoro-1-(4-fluorophenyl)ethyl)imidazo[1,2-a]pyridine-6-sulfonamide] | 17.4 nM |
| CCN([C@H](c1ccc(F)cc1)C(F)(F)F)S(=O)(=O)c1ccc2nnc(C)n2n1 [Example 168, (R)—N-ethyl-3-methyl-N-(2,2,2-trifluoro-1-(4-fluorophenyl)ethyl)-[1,2,4]triazolo[4,3-b]pyridazine-6-sulfonamide] | 2190 nM |
| CCN([C@H](c1ccc(F)cc1)C(F)(F)F)S(=O)(=O)c1ccc(=O)n(C)c1 [Example 101, (R)—N-ethyl-1-methyl-6-oxo-N-(2,2,2-trifluoro-1-(4-fluorophenyl)ethyl)-1,6-dihydropyridine-3-sulfonamide] | 182 nM |
| CN(C(c1ccc(F)cc1)C(F)(F)F)S(=O)(=O)c1ccc(F)s1 (stereo not drawn) [Example 17, 5-fluoro-N-methyl-N-(2,2,2-trifluoro-1-(4-fluorophenyl)ethyl)thiophene-2-sulfonamide] | 3630 nM |
| CCN([C@H](c1ccc(F)cc1)C(F)(F)F)S(=O)(=O)c1cc2ncccn2n1 [Example 148, (R)—N-ethyl-N-(2,2,2-trifluoro-1-(4-fluorophenyl)ethyl)pyrazolo[1,5-a]pyrimidine-2-sulfonamide] | 692 nM |
| CCN([C@H](c1ccc(F)cc1)C(F)(F)F)S(=O)(=O)c1cnc2ncccn12 [Example 177, (R)—N-ethyl-N-(2,2,2-trifluoro-1-(4-fluorophenyl)ethyl)imidazo[1,2-a]pyrimidine-3-sulfonamide] | 33.9 nM |
| CN([C@H](c1ccc(Cl)cc1)C(F)(F)F)S(=O)(=O)c1ccc(O)nn1 [Example 208, (R)—N-(1-(4-chlorophenyl)-2,2,2-trifluoroethyl)-6-hydroxy-N-methylpyridazine-3-sulfonamide] | 1050 nM |

The next lines start with the values.

| IC50 | Structure (SMILES) |
| --- | --- |
| 40.7 nM | N#Cc1cncc(S(=O)(=O)N(CCF)[C@H](c2ccc(F)cc2)C(F)(F)F)c1 [Example 66, (R)-5-cyano-N-(2-fluoroethyl)-N-(2,2,2-trifluoro-1-(4-fluorophenyl)ethyl)pyridine-3-sulfonamide] |
| 2400 nM | CN([C@H](c1ccc(F)cc1)C(F)(F)F)S(=O)(=O)c1ccc(F)s1 (stereo in doubt) [Example 19, 5-fluoro-N-methyl-N-(2,2,2-trifluoro-1-(4-fluorophenyl)ethyl)thiophene-2-sulfonamide] |
| 4170 nM | CCN([C@H](c1ccc(F)cc1)C(F)(F)F)S(=O)(=O)c1nc2ccccn2c1Cl [Example 143, (R)-3-chloro-N-ethyl-N-(2,2,2-trifluoro-1-(4-fluorophenyl)ethyl)imidazo[1,2-a]pyridine-2-sulfonamide] |
| 282 nM | CN([C@H](c1ccc(Cl)cc1)C(F)(F)F)S(=O)(=O)c1cnc2ncsc2c1 [Example 200, (R)—N-(1-(4-chlorophenyl)-2,2,2-trifluoroethyl)-N-methylthiazolo[4,5-b]pyridine-6-sulfonamide] |
| 72.4 nM | CCN([C@H](c1ccc(F)cc1)C(F)(F)F)S(=O)(=O)c1ccn2ncnc2c1 [Example 137, (R)—N-ethyl-N-(2,2,2-trifluoro-1-(4-fluorophenyl)ethyl)-[1,2,4]triazolo[1,5-a]pyridine-7-sulfonamide] |
